According to publication PMC11314063, “Inhibition of DNA Topoisomerase Ι by Flavonoids and Polyacetylenes Isolated from Bidens pilosa L” (Molecules, 2024):
Like-named read-outs stand apart in the source and are kept apart here.

Tests used:
[1] = test system: DLD-1; assay: SRB cytotoxicity assay, DLD-1; assay type: cell-based; conditions: Homo sapiens, read-out: IC50 Cytotoxicity DLD-1
From the text: (§1) The cell lines MDA-MB-231 (No. TCHu227), A549 (No. TCHu150), and HepG2 (No. TCHu72) were obtained from the Cell Bank/Stem Cell Bank, Chinese Academy of Sciences (Shanghai, China). The cell lines DLD-1 (No. CC0507) and HCT116 (No. CC0506) were obtained from the Cell Bank of Cellcook Biotech Co., Ltd. (Guangzhou, China). Cell line HL-7702 (No. BNCC338358) was obtained from Bena Culture Collection (Zhengzhou, China).
(§2) The human cancer cell lines MDA-MB-231 (breast adenocarcinoma), DLD-1 (colorectal adenocarcinoma), A549 (lung epithelial carcinoma), HCT116 (colorectal adenocarcinoma), HepG2 (hepatocellular carcinoma), and human hepatocyte HL-7702 were cultured in Dulbecco’s modified eagle medium (DMEM, Biological Industries, Beit Haemek, Israel) containing 10% (v/v) fetal bovine serum (FBS, Biological Industries, Beit Haemek, Israel) at 37 °C in a humidified incubator (ThermoFisher, Carlsbad, CA, USA) with a 5% CO2 atmosphere.

[2] = test system: HepG2; assay: SRB cytotoxicity assay, HepG2; assay type: cell-based; conditions: Homo sapiens, read-out: IC50 Cytotoxicity HepG2
From the text: as §1, §2

[3] = test system: HCT116; assay: SRB cytotoxicity assay, HCT116; assay type: cell-based; conditions: Homo sapiens, read-out: IC50 Cytotoxicity HCT116
From the text: as §1, §2

[4] = SRB cytotoxicity assay, hepatocyte HL-7702; assay type: cell-based, human
From the text: as §1, §2

[5] = test system: A549; assay: SRB cytotoxicity assay, A549; assay type: cell-based; conditions: Homo sapiens, read-out: IC50 Cytotoxicity A549
From the text: as §1, §2

[6] = test system: MDA-MB-231; assay: SRB cytotoxicity assay, MDA-MB-231; assay type: cell-based; conditions: Homo sapiens, read-out: IC50 Cytotoxicity MDA-MB-231
From the text: as §1, §2

[7] = target: T1, DNA Topo I (Homo sapiens, UniProt P11387); assay: Topo I inhibition assay (DNA relaxation assay); assay type: biochemical; conditions: for IC50: DNA relaxation assay, pBR322, mean ± SD; for percentage inhibition on Topo I activity / inhibition at 400 µM: at 400 μM; for inhibition at 400 µM: read-out: percentage inhibition on Topo I activity
T1 construct: purchased ThermoFisher, Waltham, MA, USA
T1 sequence (P11387 1-765): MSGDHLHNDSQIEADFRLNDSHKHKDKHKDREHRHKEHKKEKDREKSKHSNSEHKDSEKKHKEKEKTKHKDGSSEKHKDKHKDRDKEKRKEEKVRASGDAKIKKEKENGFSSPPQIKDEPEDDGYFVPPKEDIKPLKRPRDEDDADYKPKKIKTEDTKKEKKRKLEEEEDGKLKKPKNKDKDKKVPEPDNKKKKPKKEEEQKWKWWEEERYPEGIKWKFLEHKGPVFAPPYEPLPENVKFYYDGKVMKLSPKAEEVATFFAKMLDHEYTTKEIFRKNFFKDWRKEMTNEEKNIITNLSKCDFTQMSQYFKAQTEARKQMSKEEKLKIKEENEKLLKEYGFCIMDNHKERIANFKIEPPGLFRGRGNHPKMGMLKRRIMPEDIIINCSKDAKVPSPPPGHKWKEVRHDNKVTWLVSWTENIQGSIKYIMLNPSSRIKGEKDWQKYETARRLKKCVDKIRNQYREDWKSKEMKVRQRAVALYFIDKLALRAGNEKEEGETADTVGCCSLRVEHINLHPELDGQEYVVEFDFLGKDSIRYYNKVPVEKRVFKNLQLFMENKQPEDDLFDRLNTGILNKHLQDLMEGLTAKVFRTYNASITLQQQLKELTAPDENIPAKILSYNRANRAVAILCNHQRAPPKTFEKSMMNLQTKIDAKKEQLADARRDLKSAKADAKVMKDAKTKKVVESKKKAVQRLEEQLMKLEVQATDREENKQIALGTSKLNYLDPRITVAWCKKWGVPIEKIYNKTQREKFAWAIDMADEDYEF
Protocol: The DNA relaxation assay was adopted to investigate the compounds’ inhibitory activities on Topo I. Different concentrations of the compounds, dissolved and diluted in DMSO, were added into the relaxation buffer (50 mM Tris, pH 7.5, 50 mM KCl, 10 mM MgCl2, 0.1 mM EDTA, 0.5 Mm dithiothreitol, and 0.05 mg/mL bovine serum albumin) containing 0.2 U Topo I (ThermoFisher, Waltham, MA, USA) and incubated at room temperature for 10 min. After that, 500 ng supercoiled pBR322 plasmid DNA (ThermoFisher, Waltham, MA, USA) was added and then incubated at 37 °C for another 30 min. Finally, the reactions were stopped with a stopping solution (5% sodium dodecyl sulfate, 0.0025% bromophenol blue, and 25% glycerol), and the mixtures were applied onto 0.8% agarose gel and subjected to electrophoresis for 1.5 h in Tris-Acetate-EDTA buffer. After being stained with GelRed (Biotium, Fremont, CA, USA), the gel was imagined with the imaging system (Biotop, Shanghai, China). […] The band density of the supercoiled DNA was quantified by the ImageJ software (version 1.53a, National Institutes of Health, Bethesda, MD, USA), and the inhibition activity is expressed as the percentage inhibition and calculated by formula: Inhibition % = [(A − B)/(C − B)] × 100%, where A is the band density of the tested samples, B is the band density of the negative control, and C is the band density of the blank control.

[8] = DLD-1, SRB assay, 48 h, mean ± SD
[9] = HepG2, SRB assay, 48 h, mean ± SD
[10] = HCT-116, SRB assay, 48 h, mean ± SD
[11] = HL-7702 hepatocyte cell line, SRB assay, 48 h, human hepatocyte, mean ± SD, read-out: IC50 Cytotoxicity HL-7702
[12] = A549, SRB assay, 48 h, mean ± SD
[13] = MDA-MB-231, SRB assay, 48 h, mean ± SD

| SMILES | IC50 [1, 8] [µM] | IC50 [2, 9] [µM] | IC50 [3, 10] [µM] | IC50 at 48 h [4, 11] [µM] | IC50 [5, 12] [µM] | IC50 [6, 13] [µM] | IC50 [7] [µM] | percentage inhibition on Topo I activity [7] | inhibition at 400 µM [7] [%] | IC50 ([1]; DLD-1, 48 h) [µM] | IC50 ([2]; HepG2, 48 h) [µM] | IC50 ([3]; HCT-116, 48 h) [µM] | IC50 at 48 h ([4]; human) [µM] | IC50 ([5]; A549, 48 h) [µM] | IC50 ([6]; MDA-MB-231, 48 h) [µM] |
| --- | --- | --- | --- | --- | --- | --- | --- | --- | --- | --- | --- | --- | --- | --- | --- |
| CC[C@@]1(O)C(=O)OCc2c1cc1n(c2=O)Cc2cc3ccccc3nc2-1 [CPT, Camptothecin, reference compound] | 17 ± 3.82 | 1.71 ± 0.47 | 12.1 ± 5.74 | 2.11 | 4.41 ± 1.11 | 20.4 ± 3.7 | – | – | – | – | – | – | – | – | – |
| COc1ccc(/C=C/C(=O)c2ccc(O[C@@H]3O[C@H](CO)[C@@H](O)[C@H](O)[C@H]3O)c(O[C@@H]3O[C@H](CO)[C@@H](O)[C@H](O)[C@H]3O)c2O)cc1O [Compound 1, 4-O-methylokanin 3′,4′-di-O-β-D-glucopyranoside] | > 200 | > 200 | > 200 | > 200 | > 200 | > 200 | 394 ± 39 | – | – | – | – | – | – | – | – |
| COc1ccc(/C=C/C(=O)c2ccc(O)c(O[C@@H]3O[C@H](CO)[C@@H](O)[C@H](O)[C@H]3O)c2O)cc1O [Compound 2] | > 200 | > 200 | > 200 | > 200 | > 200 | > 200 | 329 ± 58.8 | – | – | – | – | – | – | – | – |
| COc1cc(O)c2c(=O)c(OC)c(-c3ccc(O)c(O)c3)oc2c1 [Compound 4] | 7.14 ± 0.35 | 3.05 ± 1.31 | 4.52 ± 0.04 | 19.6 ± 0.62 | 8.16 ± 4.04 | > 200 | > 400 | no inhibition | – | – | – | – | – | – | – |
| COc1cc(-c2oc3cc(O)c(OC)c(O)c3c(=O)c2O)ccc1O [Compound 8] | 187 ± 48.6 | > 200 | > 200 | > 200 | 178 ± 4.38 | > 200 | 190 ± 22.1 | – | – | – | – | – | – | – | – |
| COc1ccc(-c2oc3c(O)c(OC)c(O[C@@H]4O[C@H](CO)[C@@H](O)[C@H](O)[C@H]4O)cc3c(=O)c2OC)cc1O [Compound 9] | 50.5 ± 0.31 | > 200 | 87.7 ± 15.3 | 126 ± 7.08 | 135 ± 32.3 | > 200 | > 400 | no inhibition | – | – | – | – | – | – | – |
| COc1cc(OC)cc(-c2oc3cc(O[C@@H]4O[C@H](CO)[C@@H](O)[C@H](O)[C@H]4O)cc(O)c3c(=O)c2O)c1 [Compound 10] | 63 ± 4.08 | > 200 | 59.3 ± 4.56 | 114.8 ± 0.55 | > 200 | > 200 | > 400 | no inhibition | – | – | – | – | – | – | – |
| COc1c(O[C@@H]2O[C@H](CO)[C@@H](O)[C@H](O)[C@H]2O)cc2oc(-c3ccc(O)c(O)c3)c(OC)c(=O)c2c1O [Compound 12] | > 200 | > 200 | > 200 | > 200 | > 200 | > 200 | > 400 | – | 26.4 | – | – | – | – | – | – |
| COc1ccc(-c2oc3cc(O[C@@H]4O[C@H](CO)[C@@H](O)[C@H](O)[C@H]4O)c(OC)c(O)c3c(=O)c2OC)cc1O [Compound 14] | > 200 | > 200 | > 200 | > 200 | > 200 | > 200 | > 400 | no inhibition | – | – | – | – | – | – | – |
| O=c1cc(-c2ccc(O)c(O)c2)oc2cc(O)cc(O)c12 [Compound 15, luteolin] | – | – | – | – | – | – | 89.9 ± 28.1 | – | – | 69.2 ± 4.04 | 175 ± 16.6 | 31.7 ± 1.54 | > 200 | 93.9 ± 2.92 | 94.91 ± 0.5 |
| COc1ccc([C@@H]2CC(=O)c3ccc(O)c(O[C@@H]4O[C@H](CO)[C@@H](O)[C@H](O)[C@H]4O)c3O2)cc1O [Compound 16] | > 200 | > 200 | > 200 | > 200 | > 200 | > 200 | > 400 | – | 10.9 | – | – | – | – | – | – |
| COc1ccc([C@@H]2CC(=O)c3c(O)cc(O[C@@H]4O[C@H](CO)[C@@H](O)[C@H](O)[C@H]4O)cc3O2)cc1O [Compound 17] | > 200 | > 200 | > 200 | > 200 | > 200 | > 200 | > 400 | no inhibition | – | – | – | – | – | – | – |
| O=C1/C(=C/c2ccc(O)c(O)c2)Oc2c1ccc(O[C@@H]1O[C@H](CO)[C@@H](O)[C@H](O)[C@H]1O)c2O [Compound 18] | > 200 | > 200 | > 200 | > 200 | > 200 | > 200 | > 400 | – | 46.7 | – | – | – | – | – | – |
| CC(=O)OC[C@H]1O[C@@H](Oc2ccc3c(c2O)O/C(=C\c2ccc(O)c(O)c2)C3=O)[C@H](O)[C@@H](O)[C@@H]1O [Compound 19] | > 200 | > 200 | > 200 | > 200 | > 200 | > 200 | 47.5 ± 15.3 | – | – | – | – | – | – | – | – |
